The values below come from patent publication US4693884A, “Technetium-99m triphosphonates and tetraphosphonates for the scintigraphic visualization of res-containing organs and lymph vessels, and a process for their preparation” (Hoechst Aktiengesellschaft, priority 1982, dated 1987).

Molecules are shown by their SMILES.

Data set [1] in a line: Example 3: distribution of activity over the organs in rats, lyophilizate. The data set is classed as in vivo, Sprague-Dawley rats. Conditions: 30 min. The procedure: 8 g of sodium 2,4,4-triphosphonobutyrate are dissolved in about 60 ml of double-distilled water, the pH of the solution then being 8.5. After the pH had been adjusted to 7 with 1N HCl, 120 mg of SnCl2.2H2 O in 3 ml of 1N HCl were added, the pH was adjusted to 6 using 0.1N NaOH, and the solution was made up to 160 ml with double-distilled water. All operations should be carried out under a protective atmosphere of nitrogen gas. The solution thus obtained is freeze-dried in individual 1 ml portions in snap-closure bottles which have previously been frozen with liquid nitrogen. The contents are covered with nitrogen and the bottles are closed.
After storage for some weeks, the lyophilizate is dissolved in 10 ml of physiologic saline containing 2 mCi of technetium-99m-pertechnetate. After 30 minutes, 3 Sprague-Dawley rats (about 200 g) each receive 0.1 ml of this solution injected into the femoral vein, and 30 minutes later the animals are sacrificed with ether and the distribution of activity over the organs is determined. The following mean figures (as percentage of the dose administered) result: […]

A short description of data set [2]: Accumulation of phosphoric acid derivatives investigated as technetium-99m diagnostic agents (bone, liver, RES). Conditions: in vivo. The text has this:
It is possible to use phosphoric acid derivatives, particularly organic phosphonic acid derivatives, for bone scintigraphy. Many compounds have been investigated in the search for derivatives suitable as a technetium-99m diagnostic agent for bone.

A short description of data set [3]: Example 5: organ distribution of 99mTc ETP in rats. The following applies: 30 min, intravenous. The data set is classed as in vivo, Sprague-Dawley rats. The method, then:
1.40 g of ethane-1,1,2,2-tetraphosphonic acid are dissolved in about 20 ml of double-distilled water and the pH of the solution is adjusted to 7.0 using 1N sodium hydroxide solution. The total volume of this solution is adjusted to 100 ml with double-distilled water and, while excluding oxygen, 11 mg of SnCl2.2H2 O in 5 ml of aqueous solution are added. The clear solution thus obtained is sterilized by filtration and filled, in 0.2 ml portions, into snap-closure bottles which have previously been cooled with liquid nitrogen, and is then freeze-dried. The contents are covered with nitrogen and the bottles are closed. A bottle then contains about 3.3 mg of Na salt of ETP (corresponding to about 2.7 mg of ETP) and about 11 μg of tin(II).
The substance is labeled with ^99m Tc by the addition of 5 ml of physiologic saline which contains 1.5 mCi of technetium-99m-pertechnetate.After a reaction time of 15 minutes, three Sprague-Dawley rats each received 0.1 ml of this solution by intravenous injection. 30 minutes later, the animals were sacrificed and the organ distribution of ^99m Tc ETP was measured. The following figures (as percentage of the dose administered) were found from this: […]

Data set [4] is described as follows: Organ distribution of 99mTc-labeled substances in rats 30 minutes after injection as a function of the amount of substance administered. The data set is classed as in vivo. Conditions: for Blood/ml / Kidneys / Liver / Lung / Remainder of body / Spleen / Thyroid: 30 min after injection, n = 3. The procedure:
Assuming that 2-20 mg of TPB, ETP, PTP or phytate are administered to humans, and assuming that the weight of human is 80 kg, this corresponds to an amount administered of 25-250 μg/kg of body weight. Calculating on the basis of the body weight of rats weighing 200 g, then administration of 5-50 μg of TPB, ETP, PTP or phytate per rat exactly reflects the relationships.
Organ distribution of ^99m Tc TPB, ^99m TC ETP and ^99m Tc
phytate in rats (n = 3) 30
minutes after injection as a function of the amount of substance
(all data as a percentage of the amount of activity administered)

Data set [5] can be described thus: Comparison of 99mTc TPB, 99mTc PTP and 99mTc phytate after intravenous injection to dogs. It counts as in vivo. Conditions: intravenous; dogs; compared with phytate.
Where [6] appears, read: second amount column (printed 50 μg).
Where [7] appears, read: third amount column (printed 50 μg).
The mark [8] stands for this setting: all amounts of substance investigated.

On to `O=C([O-])C(CC(P(=O)(O)O)P(=O)(O)O)P(=O)(O)O.[Na+]` (stereo not drawn) [sodium 2,4,4-triphosphonobutyrate], for which, in data set [1] (femoral vein, mean of 3 rats), the Blood/ml is 0.03 percentage of the dose adminis, the Kidneys is 0.08 percentage of the dose adminis, the Liver is given as 96.2 percentage of the dose adminis and the Remainder of body was 4.9 percentage of the dose adminis. In data set [1] (femoral vein, mean of 3 rats), the Spleen is given as 1.9 percentage of the dose adminis, the Thyroid is recorded as 0.03 percentage of the dose adminis and the lungs was 0.24 percentage of the dose adminis. Moreover, in data set [1] (related to the dose administered), the recovered activity total worked out at 103.4%.

As to `O=P(O)(O)C(CCC(P(=O)(O)O)P(=O)(O)O)P(=O)(O)O` [BTP, butane-1,1,4,4-tetraphosphonic acid], in data set [2], the accumulation in bone entry is on record as “virtually not at all” and the “accumulation in the liver” value is on record as “very preferentially accumulated in the liver”.

`O=P(O)(O)C(C(P(=O)(O)O)P(=O)(O)O)P(=O)(O)O` [ETP, ethane-1,1,2,2-tetraphosphonic acid]: in data set [3], the total recovered activity is on record as 104.5%. Besides, in data set [3] (three rats), the Blood/ml is listed as 0.02 percentage of the dose adminis, the Kidneys was 0.12 percentage of the dose adminis, the Liver is recorded as 96.2 percentage of the dose adminis and the Remainder of body is 7.8 percentage of the dose adminis. Also, in data set [3] (three rats), the Spleen is given as 2.1 percentage of the dose adminis, the Thyroid is 0.03 percentage of the dose adminis and the lungs is reported as 0.18 percentage of the dose adminis. In data set [2], the accumulation in bone result is on record as “virtually not at all” and the “accumulation in the liver” value is listed as “very preferentially accumulated in the liver”. In data set [4] ((50 μg)), the Blood/ml is on record as 0.02 percentage of the amount of ac, the Kidneys was 0.12 percentage of the amount of activity administered, the Liver is given as 96.2 percentage of the amount of activity administered and the Lung is recorded as 0.18 percentage of the amount of activity administered. Further, in data set [4] ((50 μg)), the Remainder of body was 7.8 percentage of the amount of activity administered, the Spleen is 2.10 percentage of the amount of activity administered and the Thyroid is given as 0.03 percentage of the amount of activity administered. In addition, in data set [4] (setting [6]), the Blood/ml was 0.04 percentage of the amount of ac, the Kidneys is on record as 0.16 percentage of the amount of activity administered, the Liver is given as 95.2 percentage of the amount of activity administered and the Lung was 0.21 percentage of the amount of activity administered. Besides, in data set [4] (setting [6]), the Remainder of body is recorded as 11.2 percentage of the amount of activity administered, the Spleen was 2.13 percentage of the amount of activity administered and the Thyroid is on record as 0.03 percentage of the amount of activity administered. In addition, in data set [4] (setting [7]), the Blood/ml is reported as 0.04 percentage of the amount of ac, the Kidneys was 0.26 percentage of the amount of activity administered, the Liver is reported as 93.6 percentage of the amount of activity administered and the Lung is given as 0.32 percentage of the amount of activity administered. Also, in data set [4] (setting [7]), the Remainder of body is listed as 10.4 percentage of the amount of activity administered, the Spleen is 1.30 percentage of the amount of activity administered and the Thyroid is recorded as 0.04 percentage of the amount of activity administered. In data set [4] (setting [8]), the “accumulation in the liver and spleen compared with phytate” value is recorded as “markedly higher than that of phytate”; the “accumulation of activity in the kidneys, blood, femur and remainder of the body compared with phytate” value is “clearly lower than with phytate”. In data set [4] (deduction from the animal experiments), the “suitability as diagnostic agent for visualization of RES-containing organs compared with 99mTc phytate” value is “unambiguously superior”. Moreover, the “decrease in activity via the liver after accumulation in the liver is complete” value in data set [5] is reported as “slower”.
